Test results published in patent US20090297628A1, “Use of iron in the form of a stone extract as stimulus of the synthesis of collagen by skin fibroblasts” (GATTEFOSSE SAS, priority 2005, published 2009).

Tested on: pro-collagen I in normal human fibroblasts
Assay: Pro-collagen I content of normal human fibroblasts cultivated in a monolayer (Elisa on cell lysates)
Assay type: cell-based
Conditions: 10 ng/ml, 48 H incubation, p<0.05
Description: The influence of the product on the expression of pro-collagen I is investigated in a model of normal human fibroblasts cultivated in a monolayer. The pro-collagen I is quantified using an Elisa (Enzyme Linked ImmunoSorbent Assay) kit on cell lysates. Furthermore, the proteins contained in the cell lysates are quantified by a spectrocolorimetric method according to the Bradford method. Included in the study is a negative control, consisting of the culture medium, and a positive control, represented by TGF-β (Transforming Growth Factor β) containing 10 ng/ml.
Collagens of types I, II, […], IV and V are synthesized from precursor molecules called “pro-collagen”. […]
The fibroblasts are incubated for 48 hours at 37° C., under humid atmosphere and 5% CO2 in a culture medium alone or in the presence of a reference product or increasing concentrations of active ingredients in the test. After 48 H of incubation of the test product, the type I pro-collagen and the total proteins present in the cell lysates are quantified. The results are obtained as a quantity (ng) of pro-collagen of type I C-Peptide per quantity (μg) of total proteins of the cell layer (means+/−standard deviation, S.D.). The statistical significance (*) of the differences observed between the “control” condition and each “treated” condition is evaluated by a One Way ANOVA on Ranks analysis followed by a Dunn's test (*: p<0.05). […]

## TGF-β
  Increase of the intrafibroblastic content of type I pro-collagen: 25%
